According to patent publication US10736906B2, “Method to enhance tissue regeneration” (CHILDREN'S MEDICAL CENTER CORPORATION, priority 2006, dated 2020):

How the values were obtained:
liver growth [1] = assay: liver growth, early experimental evidence; type: in vivo
[2] = system: stem and progenitor cell population; assay: hematopoietic recovery following irradiation in the adult zebrafish (kidney marrow); type: in vivo; settings: zebrafish
Method: It has been hypothesized that wnt activation regulates HSC self-renewal and repopulation. Wnt activation is also thought to be involved in carcinogenesis, however, making the concept of direct enhancement of wnt signaling problematic. Whether regulation of wnt activity by prostaglandin can effectively modulate HSC homeostasis in the adult, was determined by observing hematopoietic recovery following irradiation in the zebrafish. […] APCMin/+ mice have elevated β-catenin levels due to loss of APC function in the destruction complex.

adult zebrafish liver = assay: liver regeneration and wound healing after 1/3 partial hepatectomy in adult zebrafish; type: in vivo; settings: for wound healing at the incision site: skin wounds following partial hepatectomy
Source text: Following ⅓ partial hepatectomy, the zebrafish liver regenerates within five days to seven days.
As many molecular pathways controlling embryonic development mediate tissue homeostasis in the adult, the effects of prostaglandin signaling during liver regeneration were examined. […] Fish were revived and allowed to heal in fish water.
To test the requirement of functional prostaglandin signaling during regeneration, fish were exposed to the dual-specific cox inhibitor, indomethacin, from hour 6 to hour 18 following partial hepatectomy.
Liver Resection: Folling administration of tricaine anesthetic, ⅓ partial hepaectomy of the adult zebrafish liver was performed under brightfield imaging on a dissection microscope. An incision was made using microdissection scissors posterior to the heart on the left lateral portion of the abdomen.

[3] = system: endodermal and hepatic progenitor cells; assay: endodermal progenitors (foxA3) and liver size (lfabp) in zebrafish embryos, in situ hybridization; type: in vivo
Source text: To determine whether the interaction of PGE2 and wnt/β-catenin signaling is a conserved regulator of stem and progenitor cell populations in other tissues, endodermal and hepatic progenitor cells were examined during zebrafish development. […] ( 51/56), as detected by expression of liver fatty acid binding protein (lfabp). […] This finding is supported by the detection of various components of PGE2 signaling in foxA3 positive cells.
The APC mutant zebrafish to model constitutive activation of the wnt signaling pathway, was used to characterize the effects of the wnt/PG interaction in foxA3+ endodermal progenitors at 48 hpf. APC+/− embryos have enhanced foxA3 expression and an increased liver bud ( 88/93) as well as increased liver size ( 68/75) compared to wild-type siblings. […] Both cyclinD1 and cmyc were co-regulated by wnt and prostaglandin during development which may indicate that PGE2 exerts its effects on stem cells through enhanced cell cycling and proliferation.
(§1) In situ hybridization: Paraformaldehyde (PFA)-fixed embryos were processed for in situ hybridization using standard zebrafish protocols such as those found on the internet at, for example, ZFIN: The Zebrafish Model Organism Database (hosted by the Univ. Oregon, Eugene, Oreg.). The following RNA probes were used to detect alterations in endodermal and liver development: GFP, LFABP, sterol carrier protein, transferrin, foxA3, insulin, trypsin, and IFABP. Changes in expression compared to wild-type controls are reported as the # altered/# scored per genotype; a minimum of three independent experiments were conducted per analysis.

[4] = system: hematopoietic stem cells (HSCs); assay: HSC formation in zebrafish embryos (runx1, c-myb expression), with heat-shock inducible wnt modulators; type: in vivo
Method: The functional consequences of the PGE2/wnt interaction in HSC formation during embryonic development were analyzed by examining the expression of the HSC markers runx1 and c-myb. Heat shock induction of a canonical wnt ligand, wnt8, at ten somites led to enhanced HSC formation at 36 hours post fertilization (hpf; 47/54). When wnt8 induction was followed by exposure to indomethacin (10 μM, 16-36 hpf) HSC formation was reduced to or below wild-type levels ( 43/46).
Inducible negative regulators of wnt activity were used in combination with dmPGE2 treatment to functionally localize the interaction between the PG and wnt pathways. Dkk1 antagonizes the wnt pathway at the level of membrane binding and the initiation of the wnt signaling cascade. Dkk induction in hs:dkk1 transgenic embryos inhibited HSC development ( 34/49). Exposure to exogenous dmPGE2 rescued the dkk1-mediated effect on HSC formation ( 28/51, 10 μM, 16-36 hpf). Axin is a central component of the β-catenin destruction complex and thus a negative regulator of the wnt signaling cascade in the cytosolic compartment. […] Similarly, a dominant-negative form of the β-catenin transcriptional co-activator TCF abolished HSC formation ( 60/62), and no rescue was affected via dmPGE2 exposure.
The wnt pathway can actively enhance HSC proliferation through signaling from the HSC niche as well as within HSCs themselves. PGE2 regulates HSC formation at the level of the vascular niche as well as within the HSCs. North et al., 2007. In order to identify transcriptional programs regulated by the wnt signaling pathway, genes involved in HSC development were analyzed by qPCR.
The functional interaction of signaling processes in the zebrafish, down stream from PG, was explored by increasing camp production using forskolin and inhibiting PKA with H89. […] Furthermore, the rescue of dkk effects by dmPGE2 was eliminated by H89.
Heat shock activation/repression of wnt signaling: Embryonic heat-shock experiments were conducted at 38° C. for a duration of 20 minutes unless otherwise noted. Genotype was determined by the presence of GFP fluorescence at three hours post heat-induction, non-fluorescence (wild-type) siblings were used as controls.
as §1

wnt activity = wnt activity in TOP:dGFP wnt reporter zebrafish embryos (in situ hybridization and qPCR for GFP); type: in vivo; settings: for wnt activity in the developing brain, liver and gut: developing zebrafish, TOP:dGFP
Source text: An embodiment of the present invention provides for manipulation of the genetic interaction between PGE2 and wnt/β-catenin signaling, which regulates developmental specification of stem cells and regeneration. Briefly, prostaglandin (PG) E2 is required for the formation and function of hematopoietic stem cells (HSCs) in vivo, yet its mechanism of action in these cells is not completely understood.
The following RNA probes were used to detect alterations in endodermal and liver development: GFP, LFABP, sterol carrier protein, transferrin, foxA3, insulin, trypsin, and IFABP. Changes in expression compared to wild-type controls are reported as the # altered/# scored per genotype; a minimum of three independent experiments were conducted per analysis.

[5] = system: cKit+Sca1+ Lineage- (KSL) bone marrow cells; assay: murine transplantation assay with purified HSCs, CFU-S12; type: in vivo, mice
Method: To assess whether prostaglandin levels regulate wnt activity in HSCs, murine transplantation assays were performed utilizing purified HSCs. FACS-isolated cKit+Sca1+ Lineage—(KSL) bone marrow cells were transplanted into lethally irradiated recipients.

liver growth [6] = assay: chart of prostaglandin derivatives: relative potency to increase liver growth; settings: zebrafish, in vivo
Source text: Another embodiment of the present invention provides for compositions and methods that modulate vertebrate tissue growth or regeneration via the prostaglandin signaling pathway. For example, prostaglandin E2 enhances vertebrate tissue regeneration. A chemical screen in zebrafish identified the prostaglandin signaling pathway as a potent modifier of liver growth during embryonic development. […] As many molecular pathways controlling embryonic development mediate tissue homeostasis in the adult, the effects of prostaglandin signaling during liver regeneration were examined. […] Fish were revived and allowed to heal in fish water.

CC1=C(/C=C/C(C)=C/C=C/C(C)=C/C(=O)O)C(C)(C)CCC1 [All-trans retinoic acid]
effect on liver growth (liver growth [1]): enhanced

CCCCC(C)(C)[C@H](O)/C=C/[C@H]1[C@H](O)CC(=O)[C@@H]1C/C=C\CCCC(=O)O [dmPGE2, dimethyl-prostaglandin E2]
kidney marrow repopulation following injury [2]: enhance kidney marrow repopulation
liver vascularity (adult zebrafish liver; compared to untreated fish): increases in liver vascularity
liver regrowth compared to controls (adult zebrafish liver; exposure following resection (indomethacin hour 6 to 18; day 1 and day 3)): enhanced liver regrowth
complete regeneration of the liver (adult zebrafish liver; indomethacin: by day 5 post-resection): faster complete regeneration
wound healing at the incision site (adult zebrafish liver): more rapid wound healing
enhanced endodermal progenitors (# altered/# scored) ([3]; APC+/− embryos): 47/54
enhanced liver size (# altered/# scored) ([3]; APC+/− embryos): 75/81
rescue of liver growth inhibited by morpholino knock-down of cox1 or cox2 ([3]; exogenous dmPGE2): rescued fully
expanded foxA3 population with increased liver anlage (# altered/# scored) ([3]; wild-type embryos): 75/83
increased liver size (# altered/# scored) ([3]; wild-type embryos): 88/92
liver size / liver development compared to controls ([3]; zebrafish embryos, by 72 hours post-fertilization): enhanced liver development
rescue of axin-mediated inhibition of HSC formation ([4]; axin induced at ten somites): could not be overcome
rescue of dominant-negative TCF-mediated loss of HSC formation ([4]; dnTCF induction): no rescue
rescue of dkk1-mediated effect on HSC formation (# altered/# scored) ([4]; hs:dkk1 embryos, 10 μM, 16-36 hpf): 28/51
effects of wnt8/dkk1 induction on runx1, cmyb, flk1, ephB2 expression (qPCR) ([4]; indomethacin added to wnt8, dmPGE2 added to dkk1): could be modified
wnt-active cells in the aorta-gonad mesonephros (AGM) (wnt activity; 10 μM, vs. 3±1.8 cells): 12±3.4 cells
wnt activity in the developing brain, liver and gut (wnt activity): enhance wnt signaling
induction of wnt activity, qPCR for GFP (wnt activity; whole embryo extracts): 2 fold

O=C1Nc2cc(Br)ccc2/C1=C1/Nc2ccccc2/C1=N\O [BIO]
CFU-S12 increase ([5]; BIO 0.05 mg/kg, p=0.03): 2 fold
early spleen colony formation following bone marrow transplantation ([5]; FIG. 11 legend): enhances early spleen colony formation

CCCCC[C@H](O)/C=C/[C@H]1[C@H](O)CC(=O)[C@@H]1C/C=C/CCCC(=O)O (relative stereo) [5-trans PGE2]
toxicity noted in liver growth chart (liver growth [6]): toxic

C[C@]12CC[C@@H]3c4ccc(O)cc4CC[C@H]3[C@@H]1CC[C@@H]2O [3-estradiol]
effect on liver growth (liver growth [1]): inhibited

BMS189453
effect on liver growth (liver growth [1]): inhibited

Vitamin D
effect on liver growth (liver growth [1]): enhanced

O=S(=O)(NCCNC/C=C/c1ccc(Br)cc1)c1cccc2cnccc12 [H89]
effect on increased HSC formation induced by dmPGE2 ([4]; PKA inhibition): reduced the increased HSC formation
effect on the rescue of dkk effects by dmPGE2 ([4]; PKA inhibition): eliminated

CCCCC[C@H](O)/C=C/[C@H]1[C@H](O)CC(=O)[C@@H]1C/C=C\CCCC(=O)O [PGE2, Prostaglandin E2]
wound healing at the incision site (adult zebrafish liver): heal faster and to a greater extent
wnt activity in the developing brain, liver and gut (wnt activity): increased wnt activity

CC1=C(/C=C/C(C)=C/C=C/C(C)=C/C=C/C=C(C)/C=C/C=C(C)/C=C/C2=C(C)CCCC2(C)C)C(C)(C)CCC1 [Beta-Carotene]
effect on liver growth (liver growth [1]): inhibited

CC1=C(/C=C/C(C)=C/C=C/C(C)=C/CO)C(C)(C)CCC1 [Retinol]
effect on liver growth (liver growth [1]): enhanced
